The values that follow come from the supplement of paper PMC8239392.

For assay [1], the system named is TAZ-IND MCF10A-TAZ tumor cells. Put plainly: cell viability relative to DMSO control; higher = less cytotoxic; extreme values may be limits of the assay. The note with it: 72 h. As to the method: (§1)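 TAZ-dependent (grown with 2 ug/ml dox) and TAZ-independent MCF10A-TAZ tumor-derived breast cancer stem-like cells were plated in 384-well plates and treated with serially diluted compounds (0.65-10 uM) for 72 h. Viability was read by resazurin assay and expressed as % of DMSO-treated control.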

Assay [2] has as its system TAZ-DEP MCF10A-TAZ tumor cells. Described as above. Particulars: 72 h. Here is the method: as §1

As for `O=C(NOC[C@H](O)CO)c1ccc(F)c(F)c1Nc1ccc(I)cc1F`, the cell viability in assay [1] (0.65 µM) was found to be 82%; in assay [1] (1.25 µM), 87%; in assay [1] (2.5 µM), 84%; in assay [1] (5 µM), 80%; in assay [1] (10 µM), 78%; in assay [2] (0.65 µM), 52%. The cell viability in assay [2] (1.25 µM) came to 56%; in assay [2] (2.5 µM) it was 53%; in assay [2] (5 µM), 47%; in assay [2] (10 µM), 48%.
`CCN(CC)CCCC(C)Nc1nc(C)cc(Nc2ccc3nc(C)cc(N)c3c2)n1` (stereo not given): the cell viability amounted to 80% in assay [1] (0.65 µM); 81% in assay [1] (1.25 µM); 90% in assay [1] (2.5 µM); 80% in assay [1] (5 µM); 73% in assay [1] (10 µM); 50% in assay [2] (0.65 µM). Also, the cell viability is 54% in assay [2] (1.25 µM), 47% in assay [2] (2.5 µM), 50% in assay [2] (5 µM) and 34% in assay [2] (10 µM).
With `CN1CCN(CCCNc2ncc(Cl)c(-c3cc4c(C(=O)NC5CC5)cccc4s3)n2)CC1`, the cell viability turned out to be 94% in assay [1] (0.65 µM); 91% in assay [1] (1.25 µM); 87% in assay [1] (2.5 µM); 84% in assay [1] (5 µM); 80% in assay [1] (10 µM); 74% in assay [2] (0.65 µM). For the same compound, the cell viability in assay [2] (1.25 µM) worked out at 67%; in assay [2] (2.5 µM), 63%; in assay [2] (5 µM) it was 63%; in assay [2] (10 µM), 65%.
Turning to `O=C([C@@H](Cc1cccc(C(F)(F)F)c1)NS(=O)(=O)c1cc(F)c2c(c1)CCNC2)N1CCCC1` [PFI-2], the cell viability in assay [1] (0.65 µM) came to 97%; in assay [1] (1.25 µM), 94%; in assay [1] (2.5 µM) it was 92%; in assay [1] (5 µM) it was 85%; in assay [1] (10 µM), 78%; in assay [2] (0.65 µM), 94%. The cell viability came to 85% in assay [2] (1.25 µM), 72% in assay [2] (2.5 µM), 56% in assay [2] (5 µM) and 46% in assay [2] (10 µM).
On to `COc1ccccc1S(=O)(=O)Nc1ccc2c(c1)CN(C)C(=O)N2`, for which the cell viability was found to be 100% in assay [1] (0.65 µM); 100% in assay [1] (1.25 µM); 94% in assay [1] (2.5 µM); 91% in assay [1] (5 µM); 85% in assay [1] (10 µM); 91% in assay [2] (0.65 µM). In addition, the cell viability is 79% in assay [2] (1.25 µM), 63% in assay [2] (2.5 µM), 54% in assay [2] (5 µM) and 41% in assay [2] (10 µM).
Regarding `CCn1c2ccccc2c2cc(CNCc3ccccc3OC)ccc21` [HLCL-61], the cell viability is 97% in assay [1] (0.65 µM); 99% in assay [1] (1.25 µM); 100% in assay [1] (2.5 µM); 100% in assay [1] (5 µM); 95% in assay [1] (10 µM); 100% in assay [2] (0.65 µM). Besides, the cell viability amounted to 100% in assay [2] (1.25 µM), 100% in assay [2] (2.5 µM), 89% in assay [2] (5 µM) and 59% in assay [2] (10 µM).
On to `CNC(=O)c1cc(Oc2ccc(NC(=O)Nc3ccc(Cl)c(C(F)(F)F)c3)cc2)ccn1` [Sorafenib], for which the cell viability turned out to be 100% in assay [1] (0.65 µM); 99% in assay [1] (1.25 µM); 100% in assay [1] (2.5 µM); 98% in assay [1] (5 µM); 93% in assay [1] (10 µM); 100% in assay [2] (0.65 µM). In addition, the cell viability in assay [2] (1.25 µM) was found to be 98%; in assay [2] (2.5 µM) it was 92%; in assay [2] (5 µM) it was 84%; in assay [2] (10 µM) it was 72%.
Consider `N#CC(=C(/N)Sc1ccccc1N)/C(C#N)=C(\N)Sc1ccccc1N` [U0126-EtOH], for which the cell viability amounted to 95% in assay [1] (0.65 µM); 94% in assay [1] (1.25 µM); 89% in assay [1] (2.5 µM); 84% in assay [1] (5 µM); 79% in assay [1] (10 µM); 99% in assay [2] (0.65 µM). Besides, the cell viability worked out at 94% in assay [2] (1.25 µM), 84% in assay [2] (2.5 µM), 70% in assay [2] (5 µM) and 67% in assay [2] (10 µM).
Regarding `Cc1c(Cc2ccc3ccccc3n2)c2cc(F)ccc2n1CC(=O)O`, the cell viability in assay [1] (0.65 µM) came to 90%; in assay [1] (1.25 µM), 94%; in assay [1] (2.5 µM), 90%; in assay [1] (5 µM), 77%; in assay [1] (10 µM), 55%; in assay [2] (0.65 µM), 90%. In addition, the cell viability stood at 82% in assay [2] (1.25 µM), 69% in assay [2] (2.5 µM), 57% in assay [2] (5 µM) and 33% in assay [2] (10 µM).
`C=CC(=O)Nc1cccc(Oc2nc(Nc3ccc(N4CCN(C)CC4)cc3OC)ncc2Cl)c1` [WZ4002]: the cell viability in assay [1] (0.65 µM) was 96%; in assay [1] (1.25 µM), 97%; in assay [1] (2.5 µM), 96%; in assay [1] (5 µM) it was 75%; in assay [1] (10 µM), 68%; in assay [2] (0.65 µM), 90%. Besides, the cell viability in assay [2] (1.25 µM) was determined as 72%; in assay [2] (2.5 µM), 67%; in assay [2] (5 µM), 33%; in assay [2] (10 µM), 23%.
For the compound `Nc1nc(OCc2cc(Br)cs2)c2[nH]cnc2n1` [Lomeguatrib], the cell viability in assay [1] (0.65 µM) turned out to be 96%; in assay [1] (1.25 µM), 98%; in assay [1] (2.5 µM), 97%; in assay [1] (5 µM) it was 100%; in assay [1] (10 µM), 85%; in assay [2] (0.65 µM) it was 96%. Moreover, the cell viability in assay [2] (1.25 µM) was determined as 91%; in assay [2] (2.5 µM), 90%; in assay [2] (5 µM), 55%; in assay [2] (10 µM) it was 36%.

The cell viability is a read-out of living cells in per cent, often relative to untreated cells.
